Experimental data as given in patent publication US9180116B2, “Difluorolactam compounds as EP4 receptor-selective agonists for use in the treatment of EP4-mediated diseases and conditions” (Cayman Chemical Company, Inc., priority 2012, dated 2015).
Read-outs that look alike come from different tables or passages of the source.

What was measured:
[1] = target: Human Prostanoid EP4 Receptor (Homo sapiens (Human), UniProt P35408); test: Radioligand binding assay, agonist site of human prostanoid EP4 receptor in transfected HEK-293 cells; details: for IC50: read-out: hEP4 receptor binding IC50; for Ki: read-out: hEP4 receptor binding Ki
Description: Radioligand Binding Assay for the Evaluation of the Affinity of Compounds for the Agonist Site of the Human Prostanoid EP4 Receptor in Transfected HEK-293 Cells
Following incubation, the samples are filtered rapidly under vacuum through glass fiber filters (GF/B, Packard) presoaked with 0.3% PEI and rinsed several times with ice-cold 50 mM Tris-HCl using a 96-sample cell harvester (Unifilter, Packard). The filters are dried then counted for radioactivity in a scintillation counter (Topcount, Packard) using a scintillation cocktail (Microscint 0, Packard).

[2] = target: T1, rat EP4 receptor (Rattus norvegicus (Rat), UniProt P43114); test: cAMP level assay for EP4 agonist (STEP plate format); type: cell-based; details: read-out: STEP cell functional assay EC50 cAMP/EP4
Source text: (§1) Functional Cellular Assays (STEP Plate Format)
Procedure of cAMP Assay for EP2/EP4 Agonist
(§2) 3. […] In addition each concentration had triplicates.
6. Aspirate the supernatant.

[3] = target: T1, rat EP4 receptor; test: SEAP activity assay for EP4 agonist (STEP plate format); type: cell-based
Source text: as §1
(§3) Procedure of SEAP Activity Assay for EP2/EP4 Agonist
as §2
(§4) 4. […] Cover the plate with the lid.

[4] = target: rat EP2 receptor (Rattus norvegicus (Rat), UniProt Q62928); test: SEAP activity assay for EP2 agonist (STEP plate format); type: cell-based; details: read-out: STEP cell functional assay EC50 SEAP/EP2
Source text: as §1, §3, §2, §4

[5] = [3H]PGE2 0.5 nM, HEK-293 cell membrane homogenates
[6] = cAMP by ELISA, 30 minutes, 500 μM IBMX
[7] = SEAP luminescence, 6-8 hours of stimulation, read-out: STEP cell functional assay EC50 SEAP/EP4
[8] = SEAP luminescence, 6-8 hours of stimulation

rat EP2 receptor, sequence (Q62928 whole entry): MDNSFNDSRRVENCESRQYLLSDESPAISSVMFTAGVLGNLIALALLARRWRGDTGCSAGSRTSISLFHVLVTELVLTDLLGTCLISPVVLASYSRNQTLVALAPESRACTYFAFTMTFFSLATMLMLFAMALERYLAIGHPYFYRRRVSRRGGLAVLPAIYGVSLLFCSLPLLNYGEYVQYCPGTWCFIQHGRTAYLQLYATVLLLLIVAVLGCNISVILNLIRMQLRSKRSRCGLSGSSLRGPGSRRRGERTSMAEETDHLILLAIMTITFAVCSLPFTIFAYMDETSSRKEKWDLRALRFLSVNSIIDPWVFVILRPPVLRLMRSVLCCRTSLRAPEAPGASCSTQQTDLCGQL
Human Prostanoid EP4 Receptor, sequence (P35408 whole entry): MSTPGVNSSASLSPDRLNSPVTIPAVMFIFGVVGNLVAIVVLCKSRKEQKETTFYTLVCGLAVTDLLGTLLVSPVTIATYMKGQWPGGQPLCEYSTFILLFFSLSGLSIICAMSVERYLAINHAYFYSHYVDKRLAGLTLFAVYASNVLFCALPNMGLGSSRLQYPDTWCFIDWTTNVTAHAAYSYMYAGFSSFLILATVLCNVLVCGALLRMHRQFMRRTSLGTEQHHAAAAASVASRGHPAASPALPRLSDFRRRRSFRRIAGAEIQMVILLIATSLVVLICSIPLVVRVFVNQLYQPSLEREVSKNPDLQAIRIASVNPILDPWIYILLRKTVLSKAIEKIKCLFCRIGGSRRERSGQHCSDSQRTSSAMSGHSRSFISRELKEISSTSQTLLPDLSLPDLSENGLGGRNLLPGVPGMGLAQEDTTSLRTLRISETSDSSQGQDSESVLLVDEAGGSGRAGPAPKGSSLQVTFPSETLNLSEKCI
T1 sequence (P43114 whole entry): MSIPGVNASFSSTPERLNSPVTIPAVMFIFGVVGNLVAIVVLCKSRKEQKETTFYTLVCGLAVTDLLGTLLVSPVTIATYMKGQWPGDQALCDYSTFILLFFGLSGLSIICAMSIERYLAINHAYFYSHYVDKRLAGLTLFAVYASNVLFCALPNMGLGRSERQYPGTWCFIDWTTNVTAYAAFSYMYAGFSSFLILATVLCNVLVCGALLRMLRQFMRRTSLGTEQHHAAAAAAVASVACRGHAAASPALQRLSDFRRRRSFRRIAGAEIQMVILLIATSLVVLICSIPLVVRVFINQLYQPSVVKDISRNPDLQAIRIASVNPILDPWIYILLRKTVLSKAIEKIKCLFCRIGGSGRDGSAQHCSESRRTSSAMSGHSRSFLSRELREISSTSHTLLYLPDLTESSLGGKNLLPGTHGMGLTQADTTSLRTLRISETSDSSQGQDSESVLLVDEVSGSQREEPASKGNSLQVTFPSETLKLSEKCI

CC#CC[C@H](C)[C@H](O)/C=C/[C@H]1CC(F)(F)C(=O)N1CCCCCCC(=O)O [Example 1F, 7-((R)-3,3-difluoro-5-((3S,4S,E)-3-hydroxy-4-methyloct-1-en-6-yn-1-yl)-2-oxopyrrolidin-1-yl)heptanoic acid]
IC50 [1, 5]: 1.2 nM | Ki [1, 5]: 0.44 nM | EC50 [2, 6]: 0.15 nM | EC50 [3, 7]: 0.059 nM

CCCCC[C@H](O)/C=C/[C@H]1CC(F)(F)C(=O)N1CCCCCCC(=O)O [Example 9C, 7-((R)-3,3-difluoro-5-((S,E)-3-hydroxyoct-1-en-1-yl)-2-oxopyrrolidin-1-yl)heptanoic acid]
IC50 [1, 5]: 0.57 nM | Ki [1, 5]: 0.21 nM | EC50 [2, 6]: 0.37 nM | EC50 [3, 7]: 0.059 nM | EC50 [4, 8]: 205 ± 124 nM

O=C(O)CCCCCCN1C(=O)C(F)(F)C[C@@H]1/C=C/[C@@H](O)CCCCc1ccccc1 [Example 10C, 7-((R)-3,3-difluoro-5-((S,E)-3-hydroxy-7-phenylhept-1-en-1-yl)-2-oxopyrrolidin-1-yl)heptanoic acid]
IC50 [1, 5]: 4.9 nM | Ki [1, 5]: 1.8 nM | EC50 [2, 6]: 1.1 nM | EC50 [3, 7]: 0.01 nM

CCC#CC[C@H](C)[C@H](O)/C=C/[C@H]1CC(F)(F)C(=O)N1CCc1ccc(C(=O)O)cc1 [Example 12D, 4-(2-((R)-3,3-difluoro-5-((3S,4S,E)-3-hydroxy-4-methylnon-1-en-6-yn-1-yl)-2-oxopyrrolidin-1-yl)ethyl)benzoic acid]
IC50 [1, 5]: 0.32 nM | Ki [1, 5]: 0.12 nM | EC50 [2, 6]: 0.047 nM | EC50 [3, 7]: 0.035 nM | EC50 [4, 8]: 1630 nM

CCCCC[C@H](O)/C=C/[C@H]1CC(F)(F)C(=O)N1CCc1ccc(C(=O)O)cc1 [Example 21C, 4-(2-((R)-3,3-difluoro-5-((S,E)-3-hydroxyoct-1-en-1-yl)-2-oxopyrrolidin-1-yl)ethyl)benzoic acid]
IC50 [1, 5]: 0.22 nM | Ki [1, 5]: 0.082 nM | EC50 [2, 6]: 0.61 nM | EC50 [3, 7]: 0.075 nM | EC50 [4, 8]: 1960 nM

C[C@@H](CCCc1ccccc1)[C@H](O)/C=C/[C@H]1CC(F)(F)C(=O)N1CCCc1ccc(C(=O)O)s1 [Example 28C, 5-(3-((R)-3,3-difluoro-5-((3S,4S,E)-3-hydroxy-4-methyl-7-phenylhept-1-en-1-yl)-2-oxopyrrolidin-1-yl)propyl)thiophene-2-carboxylic acid]
IC50 ([1]; human EP4 receptor binding): 0.74 nM | Ki ([1]; human EP4 receptor binding): 0.28 nM | EC50 ([2]; cAMP readout, EP4): 0.01 ± 0.021 nM | EC50 ([4]; SEAP readout, EP2): 148 ± 5 nM

C[C@@H](CCCc1ccccc1)[C@@H](O)/C=C/[C@H]1CC(F)(F)C(=O)N1CCCc1ccc(C(=O)O)s1 [Example 28D, 5-(3-((R)-3,3-difluoro-5-((3R,4S,E)-3-hydroxy-4-methyl-7-phenylhept-1-en-1-yl)-2-oxopyrrolidin-1-yl)propyl)thiophene-2-carboxylic acid]
EC50 ([2]; cAMP readout, EP4): 5.68 nM

COC(=O)c1ccc(CCCN2C(=O)C(F)(F)C[C@@H]2/C=C/[C@H](O)[C@H](C)CCCc2ccccc2)s1 [Example 28F, methyl 5-(3-((R)-3,3-difluoro-5-((3R,4R,E)-3-hydroxy-4-methyl-7-phenylhept-1-en-1-yl)-2-oxopyrrolidin-1-yl)propyl)thiphene-2-carboxylate]
EC50 ([2]; cAMP readout, EP4): > 1000 nM

C[C@H](CCCc1ccccc1)[C@H](O)/C=C/[C@H]1CC(F)(F)C(=O)N1CCCc1ccc(C(=O)O)s1 [Example 28G, 5-(3-((R)-3,3-difluoro-5-((3S,4R,E)-3-hydroxy-4-methyl-7-phenylhept-1-en-1-yl)-2-oxopyrrolidin-1-yl)propyl)thiphene-2-carboxylic acid]
EC50 ([2]; cAMP readout, EP4): 0.0162 nM | EC50 ([4]; SEAP readout, EP2): 65 nM

C[C@H](CCCc1ccccc1)[C@@H](O)/C=C/[C@H]1CC(F)(F)C(=O)N1CCCc1ccc(C(=O)O)s1 [Example 28H, 5-(3-((R)-3,3-difluoro-5-((3R,4R,E)-3-hydroxy-4-methyl-7-phenylhept-1-en-1-yl)-2-oxopyrrolidin-1-yl)propyl)thiphene-2-carboxylic acid]
EC50 ([2]; cAMP readout, EP4): 3.15 nM

C[C@@H](c1ccccc1)[C@H](O)/C=C/[C@H]1CC(F)(F)C(=O)N1CCCc1ccc(C(=O)O)s1 [Example 35C, 5-(3-((R)-3,3-difluoro-5-((3R,4S,E)-3-hydroxy-4-phenylpent-1-en-1-yl)-2-oxopyrrolidin-1-yl)propyl)thiophene-2-carboxylic acid]
EC50 ([2]; cAMP readout, EP4): 62 nM

COC(=O)c1ccc(CCCN2C(=O)C(F)(F)C[C@@H]2/C=C/[C@@H](O)[C@@H](C)Cc2ccccc2)s1 [Example 36A, methyl 5-(3-((R)-3,3-difluoro-5-((3S,4S,E)-3-hydroxy-4-methyl-5-phenylpent-1-en-1-yl)-2-oxopyrrolidin-1-yl)propyl)thiophene-2-carboxylate]
EC50 ([2]; cAMP readout, EP4): 5.02 nM

COC(=O)c1ccc(CCCN2C(=O)C(F)(F)C[C@@H]2/C=C/[C@H](O)[C@@H](C)Cc2ccccc2)s1 [Example 36B, methyl 5-(3-((R)-3,3-difluoro-5-((3R,4S,E)-3-hydroxy-4-methyl-5-phenylpent-1-en-1-yl)-2-oxopyrrolidin-1-yl)propyl)thiophene-2-carboxylate]
EC50 ([2]; cAMP readout, EP4): > 1000 nM

C[C@@H](Cc1ccccc1)[C@H](O)/C=C/[C@H]1CC(F)(F)C(=O)N1CCCc1ccc(C(=O)O)s1 [Example 36C, 5-(3-((R)-3,3-difluoro-5-((3S,4S,E)-3-hydroxy-4-methyl-5-phenylpent-1-en-1-yl)-2-oxopyrrolidin-1-yl)propyl)thiophene-2-carboxylic acid]
EC50 ([2]; cAMP readout, EP4): 0.038 nM | EC50 ([4]; SEAP readout, EP2): 1000 nM

COC(=O)c1ccc(CCCN2C(=O)C(F)(F)C[C@@H]2/C=C/[C@@H](O)[C@@H](C)CCc2ccccc2)s1 [Example 37A, methyl 5-(3-((R)-3,3-difluoro-5-((3S,4S,E)-3-hydroxy-4-methyl-6-phenylhex-1-en-1-yl)-2-oxopyrrolidin-1-yl)propyl)thiophene-2-carboxylate]
EC50 ([2]; cAMP readout, EP4): 8.09 nM

COC(=O)c1ccc(CCCN2C(=O)C(F)(F)C[C@@H]2/C=C/[C@@H](O)[C@@H](C)CCCCc2ccccc2)s1 [Example 38A, methyl 5-(3-((R)-3,3-difluoro-5-((3S,4S,E)-3-hydroxy-4-methyl-8-phenyloct-1-en-1-yl)-2-oxopyrrolidin-1-yl)propyl)thiophene-2-carboxylate]
EC50 ([2]; cAMP readout, EP4): > 1000 nM

COC(=O)c1ccc(CCCN2C(=O)C(F)(F)C[C@@H]2/C=C/[C@H](O)[C@@H](C)CCCCc2ccccc2)s1 [Example 38B, methyl 5-(3-((R)-3,3-difluoro-5-((3R,4S,E)-3-hydroxy-4-methyl-8-phenyloct-1-en-1-yl)-2-oxopyrrolidin-1-yl)propyl)thiophene-2-carboxylate]
EC50 ([2]; cAMP readout, EP4): > 1000 nM

C[C@@H](CCCCc1ccccc1)[C@H](O)/C=C/[C@H]1CC(F)(F)C(=O)N1CCCc1ccc(C(=O)O)s1 [Example 38C, 5-(3-((R)-3,3-difluoro-5-((3S,4S,E)-3-hydroxy-4-methyl-8-phenyloct-1-en-1-yl)-2-oxopyrrolidin-1-yl)propyl)thiophene-2-carboxylic acid]
EC50 ([4]; SEAP readout, EP2): 157 nM

C[C@@H](CCCCc1ccccc1)[C@@H](O)/C=C/[C@H]1CC(F)(F)C(=O)N1CCCc1ccc(C(=O)O)s1 [Example 38D, 5-(3-((R)-3,3-difluoro-5-((3R,4S,E)-3-hydroxy-4-methyl-8-phenyloct-1-en-1-yl)-2-oxopyrrolidin-1-yl)propyl)thiophene-2-carboxylic acid]
EC50 ([2]; cAMP readout, EP4): 0.37 nM | EC50 ([4]; SEAP readout, EP2): > 10000 nM

COC(=O)c1ccc(CCCN2C(=O)C(F)(F)C[C@@H]2/C=C/[C@@H](O)[C@@H](C)CCCCCc2ccccc2)s1 [Example 39A, methyl 5-(3-((R)-3,3-difluoro-5-((3S,4S,E)-3-hydroxy-4-methyl-9-phenylnon-1-en-1-yl)-2-oxopyrrolidin-1-yl)propyl)thiophene-2-carboxylate]
EC50 ([2]; cAMP readout, EP4): > 1000 nM

COC(=O)c1ccc(CCCN2C(=O)C(F)(F)C[C@@H]2/C=C/[C@H](O)[C@@H](C)CCCCCc2ccccc2)s1 [Example 39B, methyl 5-(3-((R)-3,3-difluoro-5-((3R,4S,E)-3-hydroxy-4-methyl-9-phenylnon-1-en-1-yl)-2-oxopyrrolidin-1-yl)propyl)thiophene-2-carboxylate]
EC50 ([2]; cAMP readout, EP4): > 1000 nM

C[C@@H](CCCCCc1ccccc1)[C@H](O)/C=C/[C@H]1CC(F)(F)C(=O)N1CCCc1ccc(C(=O)O)s1 [Example 39C, 5-(3-((R)-3,3-difluoro-5-((3S,4S,E)-3-hydroxy-4-methyl-9-phenylnon-1-en-1-yl)-2-oxopyrrolidin-1-yl)propyl)thiophene-2-carboxylic acid]
EC50 ([4]; SEAP readout, EP2): 1020 nM

C[C@@H](CCCCCc1ccccc1)[C@@H](O)/C=C/[C@H]1CC(F)(F)C(=O)N1CCCc1ccc(C(=O)O)s1 [Example 39D, 5-(3-((R)-3,3-difluoro-5-((3R,4S,E)-3-hydroxy-4-methyl-9-phenylnon-1-en-1-yl)-2-oxopyrrolidin-1-yl)propyl)thiophene-2-carboxylic acid]
EC50 ([2]; cAMP readout, EP4): 0.059 nM | EC50 ([4]; SEAP readout, EP2): 79000 nM

CCCCC[C@H](O)/C=C/[C@H]1[C@H](O)CC(=O)[C@@H]1CCCCCCC(=O)O [PGE1, reference compound]
EC50 [4, 8]: 16.5 nM
